Tests used:
[1] = test system: DU-145; experiment: Effect on total STAT3 protein level in human DU145 cells assessed as ratio of STAT3 protein level to GAPDH protein level at 5 uM after 3 hrs by Western blot analysis (reference value: 1); assay type: ADME, cell-based; conditions: du-145, 3 h
[2] = molecular target: T1, Signal transducer and activator of transcription 3 (Homo sapiens, UniProt P40763); experiment: Inhibition of STAT3 phosphorylation at Tyr705 residues in human DU145 cells at 5 uM after 24 hrs by Western blot analysis; assay type: cell-based
T1 sequence (P40763 whole entry): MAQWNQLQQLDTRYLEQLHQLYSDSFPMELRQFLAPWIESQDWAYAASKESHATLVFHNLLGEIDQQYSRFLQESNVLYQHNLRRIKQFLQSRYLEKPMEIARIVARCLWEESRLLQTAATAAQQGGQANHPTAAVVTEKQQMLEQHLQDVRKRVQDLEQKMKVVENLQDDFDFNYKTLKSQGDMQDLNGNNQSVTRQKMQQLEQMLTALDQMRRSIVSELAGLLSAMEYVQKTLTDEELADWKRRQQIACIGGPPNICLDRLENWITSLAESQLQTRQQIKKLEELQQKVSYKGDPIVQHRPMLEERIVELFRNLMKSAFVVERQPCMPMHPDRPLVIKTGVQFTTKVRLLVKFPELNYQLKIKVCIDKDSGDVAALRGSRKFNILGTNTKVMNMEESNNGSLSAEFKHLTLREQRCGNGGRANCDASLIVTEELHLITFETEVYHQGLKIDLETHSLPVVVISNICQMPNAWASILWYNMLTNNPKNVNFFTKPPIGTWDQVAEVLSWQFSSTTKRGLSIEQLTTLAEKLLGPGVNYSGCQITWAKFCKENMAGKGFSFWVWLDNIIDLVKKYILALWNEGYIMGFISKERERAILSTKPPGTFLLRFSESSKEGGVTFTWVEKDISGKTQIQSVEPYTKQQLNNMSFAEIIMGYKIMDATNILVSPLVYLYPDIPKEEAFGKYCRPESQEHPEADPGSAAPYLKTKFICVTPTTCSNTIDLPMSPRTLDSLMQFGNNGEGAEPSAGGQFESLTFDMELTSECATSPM

[3] = molecular target: T1, Signal transducer and activator of transcription 3; experiment: Binding affinity to STAT3 in human DU145 cell lysates assessed as reduction in pronase-induced STAT3 digestion by measuring ratio of STAT3 protein level to GAPDH protein level at 1 uM incubated for 1 hr in absence of pronase by Western blot analysis (reference value: 1)
[4] = molecular target: T1, Signal transducer and activator of transcription 3; experiment: Binding affinity to STAT3 in human DU145 cell lysates assessed as reduction in pronase-induced STAT3 digestion by measuring ratio of STAT3 protein level to GAPDH protein level at 100 uM incubated for 1 hr followed by 0.05% pronase addition for 10 mins by Western blot analysis (reference value: 1)
[5] = molecular target: T1, Signal transducer and activator of transcription 3; experiment: Binding affinity to STAT3 in human DU145 cell lysates assessed as reduction in pronase-induced STAT3 digestion by measuring ratio of STAT3 protein level to GAPDH protein level at 50 uM incubated for 1 hr followed by 0.02% pronase addition for 10 mins by Western blot analysis (reference value: 0.6)
[6] = test system: DU-145; experiment: Cell cycle arrest in human DU145 cells assessed as accumulation at G2/M phase at 5 uM after 24 hrs by flow cytometry (reference value: 18.12%); assay type: functional
[7] = test system: LNCaP; experiment: Effect on total STAT3 protein level in IL-6 stimulated human LNCAP cells assessed as ratio of STAT3 protein level to GAPDH protein level at 5 uM preincubated for 12 hrs followed by IL-6 stimulation for 30 mins by Western blot analysis (reference value: 1.3); assay type: ADME, cell-based; conditions: 0.5 h
[8] = test system: DU-145; experiment: Effect on total STAT3 protein level in human DU145 cells assessed as ratio of ERK1/2 protein level to GAPDH protein level at 5 uM preincubated with NAC for 1 hr followed by compound addition for 1 hr by Western blot analysis (reference value: 1); assay type: ADME, cell-based; conditions: du-145, 1 h
[9] = molecular target: T1, Signal transducer and activator of transcription 3; experiment: Inhibition of STAT3-induced ERK1/2 phosphorylation in human DU145 cells assessed as ratio of phosphorylated ERK1/2 protein level to GAPDH protein level at 5 uM after 6 hrs by Western blot analysis (reference value: 1); assay type: cell-based
[10] = test system: DU-145; experiment: Cell cycle arrest in human DU145 cells assessed as accumulation at S phase at 5 uM after 48 hrs by flow cytometry (reference value: 6.6%); assay type: functional
[11] = test system: DU-145; experiment: Effect on total ERK1/2 protein level in human DU145 cells assessed as ratio of ERK1/2 protein level to GAPDH protein level at 5 uM after 1 hr by Western blot analysis (reference value: 1); assay type: ADME, cell-based; conditions: du-145, 1 h
[12] = molecular target: T1, Signal transducer and activator of transcription 3; experiment: Inhibition of STAT3 phosphorylation at Tyr705 residues in human DU145 cells assessed as ratio of phosphorylated STAT3 protein level to GAPDH protein level at 5 uM after 6 hrs by Western blot analysis (reference value: 1); assay type: cell-based
[13] = molecular target: T1, Signal transducer and activator of transcription 3; experiment: Inhibition of STAT3 (unknown origin) expressed in human HCT116 cells after 24 hrs by dual-luciferase reporter gene assay; assay type: cell-based
[14] = molecular target: T1, Signal transducer and activator of transcription 3; experiment: Inhibition of STAT3 phosphorylation at Tyr705 residues in human DU145 cells assessed as ratio of phosphorylated STAT3 protein level to GAPDH protein level at 5 uM after 0.5 hrs by Western blot analysis (reference value: 1); assay type: cell-based
[15] = test system: DU-145; experiment: Effect on total STAT3 protein level in human DU145 cells assessed as ratio of STAT3 protein level to GAPDH protein level at 5 uM after 24 hrs by Western blot analysis (reference value: 1); assay type: ADME, cell-based; conditions: du-145, 24 h
[16] = molecular target: T1, Signal transducer and activator of transcription 3; experiment: Inhibition of STAT3 phosphorylation at Tyr705 residues in human DU145 cells assessed as ratio of phosphorylated STAT3 protein level to GAPDH protein level at 5 uM after 1 hr by Western blot analysis (reference value: 1); assay type: cell-based
[17] = test system: DU-145; experiment: Effect on total ERK1/2 protein level in human DU145 cells assessed as ratio of ERK1/2 protein level to GAPDH protein level at 5 uM after 12 hrs by Western blot analysis (reference value: 1); assay type: ADME, cell-based; conditions: du-145, 12 h
[18] = molecular target: T1, Signal transducer and activator of transcription 3; experiment: Binding affinity to STAT3 in human DU145 cell lysates assessed as reduction in pronase-induced STAT3 digestion by measuring ratio of STAT3 protein level to GAPDH protein level at 10 uM incubated for 1 hr followed by 0.05% pronase addition for 10 mins by Western blot analysis (reference value: 1)
[19] = molecular target: T1, Signal transducer and activator of transcription 3; experiment: Inhibition of STAT3 in human DU145 cells assessed as increase in ERK1/2 phosphorylation at 5 uM by Western blot analysis; assay type: cell-based; conditions: TDE = time-dependent effect
[20] = molecular target: T1, Signal transducer and activator of transcription 3; experiment: Inhibition of STAT3-induced ERK1/2 phosphorylation in human DU145 cells assessed as ratio of phosphorylated ERK1/2 protein level to GAPDH protein level at 5 uM after 1 hr by Western blot analysis (reference value: 1); assay type: cell-based
[21] = molecular target: T1, Signal transducer and activator of transcription 3; experiment: Inhibition of STAT3 phosphorylation in human LNCAP cells assessed as ratio of phosphorylated STAT3 protein level to GAPDH protein level at 5 uM after 12 hrs by Western blot analysis (reference value: 1); assay type: cell-based
[22] = molecular target: T1, Signal transducer and activator of transcription 3; experiment: Binding affinity to STAT3 in human DU145 cell lysates assessed as reduction in pronase-induced STAT3 digestion by measuring ratio of STAT3 protein level to GAPDH protein level at 50 uM incubated for 1 hr in absence of pronase by Western blot analysis (reference value: 1)
[23] = molecular target: T1, Signal transducer and activator of transcription 3; experiment: Inhibition of STAT3-induced ERK1/2 phosphorylation in human DU145 cells assessed as ratio of phosphorylated ERK1/2 protein level to GAPDH protein level at 5 uM after 0.5 hrs by Western blot analysis (reference value: 1); assay type: cell-based
[24] = molecular target: T1, Signal transducer and activator of transcription 3; experiment: Inhibition of STAT3 phosphorylation at Tyr705 residues in human DU145 cells assessed as ratio of phosphorylated STAT3 protein level to GAPDH protein level at 5 uM after 12 hrs by Western blot analysis (reference value: 1); assay type: cell-based
[25] = molecular target: T1, Signal transducer and activator of transcription 3; experiment: Inhibition of STAT3 in human DU145 cells assessed as ratio of Bcl-xl protein level to tubulin protein level at 5 uM after 48 hrs by Western blot analysis (reference value: 1); assay type: cell-based
[26] = molecular target: T1, Signal transducer and activator of transcription 3; experiment: Inhibition of STAT3-induced ERK1/2 phosphorylation in human DU145 cells assessed as ratio of phosphorylated ERK1/2 protein level to GAPDH protein level at 5 uM after 3 hrs by Western blot analysis (reference value: 1); assay type: cell-based
[27] = molecular target: T1, Signal transducer and activator of transcription 3; experiment: Binding affinity to STAT3 in human DU145 cell lysates assessed as reduction in pronase-induced STAT3 digestion by measuring ratio of STAT3 protein level to GAPDH protein level at 50 uM incubated for 1 hr followed by 0.05% pronase addition for 10 mins by Western blot analysis (reference value: 1)

SMILES: C=C(C)C(=O)N(Cc1ccc(Br)cc1)C(=O)/C=C/c1cc(OC)c(OC)c(OC)c1
- Ratio [1]: 1
- inhibition [2]: > 70%
- Ratio [3]: 1
- Ratio [4]: 2.3
- Ratio [5]: 0.6
- Activity [6]: 22.2%
- Ratio [7]: 1.1
- Ratio [8]: 0.7
- Ratio [9]: 2.2
- Activity [10]: 6.57%
- Ratio [11]: 1.1
- Ratio [12]: 0.2
- IC50 [13]: 10 µM
- inhibition [13]: Dose-dependent effect
- Ratio [14]: 0.5
- Ratio [15]: 0.7
- Ratio [16]: 0.3
- Ratio [17]: 0.9
- Ratio [18]: 2.1
- inhibition [19]: Tde
- Ratio [20]: 1.8
- Ratio [21]: 1
- Ratio [22]: 1.1
- Ratio [23]: 1.6
- Ratio [24]: 0.2
- Ratio [25]: 1
- Ratio [26]: 2
- Ratio [27]: 2.2

From ChEMBL document CHEMBL4219265, “Piperlongumine derivative, CG-06, inhibits STAT3 activity by direct binding to STAT3 and regulating the reactive oxygen species in DU145 prostate carcinoma cells” (Bioorg Med Chem Lett, 2018)
